Test results as given in PubChem BioAssay (NCI).
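In this assay, cells in 96-well plates receive the compound at five concentrations for 48 hours. Endpoints are linearly interpolated between the surrounding concentrations. Here, GI50 denotes the concentration required for 50% inhibition of growth. The concentration for full growth arrest is given as TGI.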

Tests used:
Test in all cases: inhibition of tumour cell growth, NCI panel, 48 h
HOP-92 NSCLC = system: HOP-92 NSCLC
MDA-MB-231 breast = system: MDA-MB-231 breast
HCT-116 colon = system: HCT-116 colon
NCI-H460 lung = system: NCI-H460 lung
HS 578T breast = system: HS 578T breast
TK-10 renal = system: TK-10 renal
K-562 leukemia = system: K-562 leukemia
SF-539 CNS = system: SF-539 CNS
SW-620 colon = system: SW-620 colon
UACC-62 melanoma = system: UACC-62 melanoma

CCOC(=O)c1c(N2CCCC2)[nH]c(=O)c(C(c2ccc(N(C)C)cc2)c2c(O)c(C(=O)OCC)c(N3CCCC3)[nH]c2=O)c1O
TGI (HOP-92 NSCLC): > 100 µM | TGI (MDA-MB-231 breast): > 100 µM | TGI (HCT-116 colon): > 100 µM | TGI (NCI-H460 lung): > 100 µM | TGI (HS 578T breast): > 100 µM | TGI (TK-10 renal): > 100 µM | TGI (K-562 leukemia): > 100 µM | TGI (SF-539 CNS): > 100 µM | TGI (SW-620 colon): > 100 µM | TGI (UACC-62 melanoma): > 100 µM

CCOc1ccc2nc3nc(=O)[nH]c(C)c3c(NC(C)(CO)CO)c2c1
TGI (HOP-92 NSCLC): > 100 µM | TGI (MDA-MB-231 breast): > 100 µM | TGI (HCT-116 colon): > 100 µM | TGI (NCI-H460 lung): > 100 µM | TGI (HS 578T breast): > 100 µM | TGI (TK-10 renal): > 100 µM | TGI (K-562 leukemia): > 100 µM | TGI (SF-539 CNS): > 100 µM | TGI (SW-620 colon): > 100 µM | TGI (UACC-62 melanoma): > 100 µM

Nc1ccc2c(=O)cc(-c3ccc(Br)s3)[nH]c2n1
TGI (HOP-92 NSCLC): > 100 µM | TGI (MDA-MB-231 breast): > 94.8 µM | TGI (HCT-116 colon): > 100 µM | TGI (NCI-H460 lung): > 100 µM | TGI (HS 578T breast): > 100 µM | TGI (TK-10 renal): > 100 µM | TGI (K-562 leukemia): > 100 µM | TGI (SF-539 CNS): 6.02 µM | TGI (SW-620 colon): > 100 µM | TGI (UACC-62 melanoma): > 100 µM

O=c1cc(-c2ccccc2)oc2c1ccc1[nH]c3ccccc3c(=O)c12
TGI (HOP-92 NSCLC): > 100 µM | TGI (MDA-MB-231 breast): > 100 µM | TGI (HCT-116 colon): > 100 µM | TGI (NCI-H460 lung): 36.9 µM | TGI (HS 578T breast): > 100 µM | TGI (TK-10 renal): > 100 µM | TGI (K-562 leukemia): > 100 µM | TGI (SF-539 CNS): > 100 µM | TGI (SW-620 colon): > 100 µM | TGI (UACC-62 melanoma): > 100 µM

O=C(Nc1ccc(-n2cc(-c3ccncc3)c(-c3ccc(O)c(Cl)c3)n2)cc1)c1ccc(Cl)c(C(F)(F)F)c1
GI50 (HOP-92 NSCLC): 1.07 µM | TGI (HOP-92 NSCLC): 4.55 µM | GI50 (MDA-MB-231 breast): 0.735 µM | TGI (MDA-MB-231 breast): 1.56 µM | GI50 (HCT-116 colon): 1.75 µM | TGI (HCT-116 colon): 7.04 µM | GI50 (NCI-H460 lung): 1.94 µM | TGI (NCI-H460 lung): > 50 µM | GI50 (HS 578T breast): 0.702 µM | TGI (HS 578T breast): 3.1 µM | GI50 (TK-10 renal): 1.72 µM | TGI (TK-10 renal): 18.1 µM | GI50 (K-562 leukemia): 1.37 µM | TGI (K-562 leukemia): > 50 µM | GI50 (SF-539 CNS): 0.96 µM | TGI (SF-539 CNS): 3.41 µM | GI50 (SW-620 colon): 2.38 µM | TGI (SW-620 colon): > 50 µM | GI50 (UACC-62 melanoma): 3.38 µM | TGI (UACC-62 melanoma): 14.2 µM

COc1cc2c3c(n(C)c(=O)c2cc1OC)-c1cc2c(cc1/C3=C\CCCCCBr)OCO2
TGI (HOP-92 NSCLC): 38.7 µM | TGI (MDA-MB-231 breast): > 100 µM | GI50 (HCT-116 colon): 6.14 µM | TGI (HCT-116 colon): 44.7 µM | TGI (NCI-H460 lung): 69.8 µM | TGI (HS 578T breast): > 100 µM | TGI (TK-10 renal): 55.8 µM | TGI (K-562 leukemia): 30.2 µM | GI50 (SF-539 CNS): 5.7 µM | TGI (SF-539 CNS): 89.8 µM | TGI (SW-620 colon): > 100 µM | GI50 (UACC-62 melanoma): 3.87 µM | TGI (UACC-62 melanoma): 29 µM

O=C1Nc2cccc(Cl)c2/C1=C\c1c(-c2ccccc2)nc2n1CCS2
TGI (HOP-92 NSCLC): 56.9 µM | TGI (MDA-MB-231 breast): 49 µM | TGI (HCT-116 colon): 54.6 µM | TGI (NCI-H460 lung): 40.7 µM | TGI (HS 578T breast): 61.4 µM | TGI (TK-10 renal): 45.1 µM | TGI (K-562 leukemia): 55.1 µM | TGI (SF-539 CNS): 36 µM | TGI (SW-620 colon): 35.2 µM | TGI (UACC-62 melanoma): 45.6 µM

c1ccc2c(Nc3ncco3)cccc2c1
TGI (HOP-92 NSCLC): > 10 µM | TGI (MDA-MB-231 breast): > 10 µM | TGI (HCT-116 colon): > 10 µM | TGI (NCI-H460 lung): > 10 µM | TGI (HS 578T breast): > 10 µM | TGI (TK-10 renal): > 10 µM | TGI (K-562 leukemia): > 10 µM | TGI (SF-539 CNS): > 10 µM | TGI (SW-620 colon): > 10 µM | TGI (UACC-62 melanoma): > 10 µM

CCOC(=O)C1CCC(=O)N1C(=O)c1cccc(Cl)c1 (stereo not drawn)
TGI (HOP-92 NSCLC): > 100 µM | TGI (MDA-MB-231 breast): > 100 µM | TGI (HCT-116 colon): > 100 µM | TGI (NCI-H460 lung): > 100 µM | TGI (HS 578T breast): > 100 µM | TGI (TK-10 renal): > 100 µM | TGI (K-562 leukemia): > 100 µM | TGI (SF-539 CNS): > 100 µM | TGI (SW-620 colon): > 100 µM | TGI (UACC-62 melanoma): 62.4 µM
